tested on: ATF4 luciferase reporter in HEK293T cells; assay: ATF4-Luc assay (ATF4 luciferase reporter, tunicamycin-treated HEK293T cells); assay type: cell-based, human; settings: Homo sapiens, HEK-293T; HEK293T cells carrying the ATF4 luciferase reporter, 1 μg/mL tunicamycin, 7 hours

SMILES	EC50 [nM]
O=C(Cn1cc(F)cnc1=O)NC12CCC(NC(=O)COc3ccc(Cl)c(F)c3)(CC1)[C@@H](O)C2 [Compound 646, 2-(4-chloro-3-fluorophenoxy)-N-{(2S)-4-[2-(5-fluoro-2-oxopyrimidin-1(2H)-yl)acetamido]-2-hydroxybicyclo[2.2.2]octan-1-yl}acetamide]	500 to 2000
O=C(COc1ccc(Cl)c(Cl)c1)NC12CC(NC(=O)NCc3cccc(F)c3)(C1)C2 [Compound 451, 2-(3,4-dichlorophenoxy)-N-[3-({[(3-fluorophenyl)methyl]carbamoyl}amino)bicyclo[1.1.1]pentan-1-yl]acetamide]	> 2000
O=C(COc1ccc(Cl)c(F)c1)NC12CC(NC(=O)COc3ccc4cn[nH]c4c3)(C1)C2 [Compound 108, 2-(4-chloro-3-fluorophenoxy)-N-(3-{2-[(1H-indazol-6-yl)oxy]acetamido}-bicyclo[1.1.1]pentan-1-yl)acetamide]	10 to 50
Nc1cc(OCC(=O)NC23CC(NC(=O)COc4ccc(Cl)c(F)c4)(C2)C3)ccc1Cl [Compound 228, 2-(3-amino-4-chlorophenoxy)-N-{3-[2-(4-chloro-3-fluorophenoxy)acetamido]-bicyclo[1.1.1]pentan-1-yl}acetamide]	< 10
O=C(COc1ccc2c(c1)OC(F)(F)O2)NC12CCC(NC(=O)COc3ccc(OC(F)(F)F)cc3)(CC1)[C@@H](O)C2 [Compound 786, 2-[(2,2-difluoro-2H-1,3-benzodioxol-5-yl)oxy]-N-[(3S)-3-hydroxy-4-{2-[4-(trifluoromethoxy)phenoxy]acetamido}bicyclo[2.2.2]octan-1-yl]acetamide]	< 10
O=C(COc1ccc(Cl)c(F)c1)NC12CCC(NC(=O)COc3ccc(OC(F)(F)F)cc3)(CC1)[C@@H](O)C2 [Compound 505, 2-(4-chloro-3-fluorophenoxy)-N-[(3S)-3-hydroxy-4-{2-[4-(trifluoromethoxy)phenoxy]acetamido}bicyclo[2.2.2]octan-1-yl] acetamide]	< 10
Cc1ccc(OCC(=O)NC23CC(NC(=O)COc4ccc(Cl)c(Cl)c4)(C2)C3)cn1 [Compound 295, 2-(3,4-dichlorophenoxy)-N-(3-{2-[(6-methylpyridin-3-yl)oxy]acetamido}bicyclo[1.1.1]pentan-1-yl)acetamide]	50 to 250
O=C(COc1nccs1)NC12CCC(NC(=O)COc3ccc(Cl)c(F)c3)(CC1)[C@@H](O)C2 [Compound 577, 2-(4-chloro-3-fluorophenoxy)-N-[(2S)-2-hydroxy-4-{2-[(1,3-thiazol-2-yl)oxy]acetamido}bicyclo[2.2.2]octan-1-yl]acetamide]	> 2000
O=C(COc1ccc(Cl)c(F)c1)NC12CCC(NC(=O)COc3ccc(Cl)c(F)c3)(CC1)[C@@H](C(=O)O)C2 [Compound 558, (2S)-1,4-bis[2-(4-chloro-3-fluorophenoxy)acetamido]bicyclo[2.2.2]octane-2-carboxylic Acid]	500 to 2000
O=C(COc1ccc(OC(F)(F)F)c(F)c1)NC12CCC(NC(=O)COc3ccc(OC(F)(F)F)cc3)(CC1)[C@@H](O)C2 [Compound 764, 2-[3-fluoro-4-(trifluoromethoxy)phenoxy]-N-[(3S)-3-hydroxy-4-{2-[4-(trifluoromethoxy)phenoxy]acetamido}bicyclo[2.2.2]octan-1-yl]acetamide]	10 to 50
O=C(COc1ccc(Cl)c(F)c1)NC12CC(NC(=O)COc3ccc(F)c(Cl)c3)(C1)C2 [Compound 534, 2-(4-chloro-3-fluorophenoxy)-N-{3-[2-(3-chloro-4-fluorophenoxy)acetamido]bicyclo[1.1.1]pentan-1-yl}acetamide]	< 10
CS(=O)(=O)c1ccc(OCC(=O)NC23CCC(NC(=O)COc4ccc(Cl)c(F)c4)(CC2)[C@@H](O)C3)cc1F [Compound 769, 2-(4-chloro-3-fluorophenoxy)-N-[(2S)-4-{2-[3-fluoro-4-(methanesulfonyl)phenoxy]acetamido}-2-hydroxybicyclo[2.2.2]octan-1-yl]acetamide]	10 to 50
O=C(COc1ccnc(C(F)F)c1)NC12CC(NC(=O)COc3ccc(Cl)c(F)c3)(C1)C2 [Compound 378, 2-(4-chloro-3-fluorophenoxy)-N-[3-(2-{[2-(difluoromethyl)pyridin-4-yl]oxy}acetamido)bicyclo[1.1.1]pentan-1-yl]acetamide]	10 to 50
O=C(COc1ccc(Cl)cc1)NC12CC(NC(=O)COc3ccc4c(c3)OC(F)(F)O4)(C1)C2 [Compound 580, 2-(4-chlorophenoxy)-N-(3-{2-[(2,2-difluoro-2H-1,3-benzodioxol-5-yl)oxy]acetamido}bicyclo[1.1.1]pentan-1-yl)acetamide]	< 10
O=C(COCc1ccc(C(F)(F)F)nc1)NC12CC(NC(=O)COc3ccc(Cl)c(F)c3)(C1)C2 [Compound 284, 2-(4-chloro-3-fluorophenoxy)-N-[3-(2-{[6-(trifluoromethyl)pyridin-3-yl]methoxy}acetamido)bicyclo[1.1.1]pentan-1-yl]acetamide]	10 to 50
COc1cccc(CCC(=O)NC23CC(NC(=O)COc4ccc(Cl)c(F)c4)(C2)C3)c1 [Compound 461, N-{3-[2-(4-chloro-3-fluorophenoxy)acetamido]bicyclo[1.1.1]pentan-1-yl}-3-(3-methoxyphenyl)propanamide]	> 2000
O=C(COc1ccc(Cl)c(F)c1)NC12CC(NC(=O)COc3ccc(Cl)c(I)c3)(C1)C2 [Compound 260, 2-(4-chloro-3-fluorophenoxy)-N-{3-[2-(4-chloro-3-iodophenoxy)acetamido]-bicyclo[1.1.1]pentan-1-yl}acetamide]	< 10
COc1cc(OC)nc(OCC(=O)NC23CCC(NC(=O)COc4ccc(Cl)c(F)c4)(CC2)C[C@@H]3O)n1 [Compound 498, 2-(4-chloro-3-fluorophenoxy)-N-[(3S)-4-{2-[(4,6-dimethoxypyrimidin-2-yl)oxy]acetamido}-3-hydroxybicyclo[2.2.2]octan-1-yl]acetamide]	250 to 500
O=C(COc1ccc(C2CC2)nc1)NC12CC(NC(=O)COc3ccc(Cl)c(F)c3)(C1)C2 [Compound 251, 2-(4-chloro-3-fluorophenoxy)-N-(3-{2-[(6-cyclopropylpyridin-3-yl)oxy]acetamido}bicyclo[1.1.1]pentan-1-yl)acetamide]	10 to 50
O=C(COc1ccc(Cl)c(F)c1)NC12CC(NC(=O)Nc3ccc(Cl)cc3)(C1)C2 [Compound 431, 2-(4-chloro-3-fluorophenoxy)-N-(3-{[(4-chlorophenyl)carbamoyl]amino}bicyclo[1.1.1]pentan-1-yl)acetamide]	50 to 250
Cc1cccc(OCC(=O)NC23CCC(NC(=O)COc4ccc(Cl)c(F)c4)(CC2)C[C@@H]3O)c1 [Compound 509, 2-(4-chloro-3-fluorophenoxy)-N-{(3S)-3-hydroxy-4-[2-(3-methylphenoxy)acetamido]bicyclo[2.2.2]octan-1-yl}acetamide]	< 10
Cc1cc(OCC(=O)NC23CCC(NC(=O)COc4ccc(Cl)c(Cl)c4)(CC2)[C@@H](O)C3)no1 [Compound 664, 2-(3,4-dichlorophenoxy)-N-[(2S)-2-hydroxy-4-{2-[(5-methyl-1,2-oxazol-3-yl)oxy]acetamido}bicyclo[2.2.2]octan-1-yl]acetamide]	10 to 50
O=C(COc1cc(C(F)(F)F)nc(C(F)(F)F)c1)NC12CC(NC(=O)COc3ccc(Cl)c(F)c3)(C1)C2 [Compound 296, 2-{[2,6-bis(trifluoromethyl)pyridin-4-yl]oxy}-N-{3-[2-(4-chloro-3-fluorophenoxy)acetamido]bicyclo[1.1.1]pentan-1-yl}acetamide]	> 2000

Source: US20240166652A1, “MODULATORS OF THE INTEGRATED STRESS PATHWAY” (Calico Life Sciences LLC, priority 2017, published 2024)
